Reference: patent US10495796B2, “Near-infrared cut filter” (AGC INC., priority 2012, dated 2019)

How the values were obtained:
[1] = Solubility of dye to organic solvent; assay type: physicochemical; settings: 50° C., mass % of the dye to the mass of the entire solution; for Solubility to organic solvent: MIBK: methyl isobutyl ketone
Experimental: Regarding the dyes (A11-1) to (A11-10) and (A11-20) to (A11-27) obtained above, solubility to organic solvent was evaluated as follows.
Three kinds of solvents, cyclohexanone, methyl isobutyl ketone (MIBK), toluene, were used as the organic solvent in the solubility test. Note that in Table 3, % is mass % of the dye to the mass of the entire solution. Further, the temperature of each organic solvent in the solubility test was 50° C.

[2] = Absorption characteristics: transmission spectrum of near-infrared absorbing layer of NIR filter (UV-visible spectrophotometer); assay type: physicochemical
Experimental: Further, the transmittance of the near-infrared absorbing layer can be measured by using an ultraviolet visible light spectrophotometer. For example, when the near-infrared absorbing layer is provided on a glass substrate, the transmittance is calculated by subtracting the transmittance of only the glass substrate. Note that the transmittance of light of the near-infrared absorbing layer refers to, unless otherwise stated, a ratio to light incident from a direction orthogonal to a main surface of a sample, the ratio of this light traveling straight inside the sample and transmitted to an opposite side. Further, when the transmittance is measured by making light incident from a direction other than the direction orthogonal to the main surface of the sample in the measurement of transmittance of light, an angle made by a straight line indicating the direction of the incident light to a line orthogonal to the main surface is called an incident angle.
In the condition (ii-3), the value calculated by nd(B)×(λa−λc) (hereinafter, this value may also be described as “Is value”) is a value to be an index indicating steepness of the absorption curve in the vicinity of the boundary between the visible light region and the near-infrared region with respect to a transmission spectrum of the near-infrared absorbing layer. When this value is 115 or less, the absorption curve in the vicinity of the boundary between the visible light region and the near-infrared region is steep with respect to the near-infrared absorbing layer, which can be said as preferable for the NIR filter.
That is, with respect to the transmission spectrum of the near-infrared absorbing layer, the smaller the difference (λa−λc) between the shortest wavelength λa with transmittance of 1% in the region of 650 nm to 800 nm and the wavelength λc with transmittance of 70% on a shorter wavelength side than the λa, the steeper the absorption curve in the vicinity of the boundary between the visible light region and the near-infrared region. Here, λa−λc also depends on a wavelength width having transmittance of 1% or less (λb−λa; λb is the longest wavelength with transmittance of 1% in the wavelength region of 650 nm to 800 nm). Accordingly, in order to compare and evaluate the steepness of the absorption curve in the above region of the transmission spectrum of the near-infrared absorbing layer, λb−λa is fixed to 30 nm. That is, λb−λa of the near-infrared absorbing layer which the present filter has is not limited to 30 nm.
Further, in the Is value, (λa−λc) is multiplied by the refractive index nd(B) of the transparent resin (B) contained in the near-infrared absorbing layer as a coefficient. This is to standardize the difference in steepness among resins.
Regarding transmittance (%/nm) of the NIR filters 1 to 109 obtained above, transmission spectra were measured and calculated by using an ultraviolet visible light spectrophotometer (U-4100 type spectrophotometer made by Hitachi High-Technologies Corporation). Analysis results of transmission spectra of the near-infrared absorbing layers which the NIR filters have are presented in Table 4, Table 5 and Table 6 for the NIR filters 1 to 25, 26 to 51, 52 to 75, respectively, and are presented in Table 7 and Table 8 for the NIR filters 76 to 94, 95 to 109, respectively. In Table 4 to Table 8, the ratios (parts by mass) of dyes to 100 parts by mass of the transparent resin (B) and film thicknesses of the near-infrared absorbing layers are described together.
Further, conditions of preferred transmission spectra of the near-infrared absorbing layers in the present filter and Is values obtained by the formula: nd(B)×(λa-λc) described in above (ii-3) are described in Table 4 to Table 8 together with λa in the condition (ii-1) and λb-λa in the condition (ii-2). Note that values described in Table 4 to Table 8 are values obtained by subtracting transmittance of a glass plate from transmittance of an NIR filter. […]

[3] = transparent resin acrylic resin BR50, nd(B) 1.56, film thickness 2.3 μm
[4] = transparent resin polycarbonate EP5000, nd(B) 1.63, film thickness 2.4 μm
[5] = transparent resin polycarbonate SP3810, nd(B) 1.63, film thickness 1.0 μm
[6] = transparent resin polycarbonate SP3810, nd(B) 1.63, film thickness 2.8 μm
[7] = transparent resin polycarbonate SP1516, nd(B) 1.60, film thickness 0.9 μm

In the case of `CCCC(CCC)C(=O)Nc1cc2c(cc1C1=C([O-])C(=c3cc4c(cc3NC(=O)C(CCC)CCC)=[N+](C)C(C)C4(C)C)C1=O)C(C)(C)C(C)N2C` (centres unmarked) [Example A11-1], the “Solubility to organic solvent: Cyclohexanone” value (“Solubility … Cyclohexanone” for short) [1] is reported as 10%< mass %, the “Solubility to organic solvent: MIBK” value [1] is reported as 2.50% mass % and the “Solubility to organic solvent: Toluene” value [1] is reported as 10%< mass %. The “430 nm to 600 nm Average transmittance” value [2, 3] was 95.1%, the “Is value (nd(B)×(λa-λc))” value [2, 3] was 110.9 and the λa [2, 3] was 689 nm. The “λa − λc” value [2, 3] was 71 nm, the λb [2, 3] was 719 nm and the “λb − λa” value [2, 3] was 30 nm. For the same compound, the λc [2, 3] was 618 nm, the λmax [2, 3] was 706 nm and the “430 nm to 600 nm Average transmittance” value [2, 4] was 96.5%. For the same compound, the “Is value (nd(B)×(λa-λc))” value [2, 4] was 111.0, the λa [2, 4] was 694 nm and the “λa − λc” value [2, 4] was 68 nm. For the same compound, the λb [2, 4] was 724 nm, the “λb − λa” value [2, 4] was 30 nm and the λc [2, 4] was 626 nm. The λmax [2, 4] was 711 nm, the “430 nm to 600 nm Average transmittance” value [2, 5] was 97.3% and the “Is value (nd(B)×(λa-λc))” value [2, 5] was 112.8. For the same compound, the λa [2, 5] was 694 nm, the “λa − λc” value [2, 5] was 69 nm and the λb [2, 5] was 724 nm. The “λb − λa” value [2, 5] was 30 nm, the λc [2, 5] was 625 nm and the λmax [2, 5] was 706 nm. The “430 nm to 600 nm Average transmittance” value [2, 6] was 96%, the “Is value (nd(B)×(λa-λc))” value [2, 6] was 112.8 and the λa [2, 6] was 695 nm. The “λa − λc” value [2, 6] was 69 nm, the λb [2, 6] was 725 nm and the “λb − λa” value [2, 6] was 30 nm. The λc [2, 6] was 626 nm and the λmax [2, 6] was 711 nm.
For `CC(=O)Nc1cc2c(cc1C1=C([O-])C(=c3cc4c(cc3NC(C)=O)=[N+](C)C(C)C4(C)C)C1=O)C(C)(C)C(C)N2C` (centres unmarked) [Example A11-20, reference compound], the “Solubility … Cyclohexanone” value [1] was under 1.0% mass %, the “Solubility to organic solvent: MIBK” value [1] was under 1.0% mass % and the “Solubility to organic solvent: Toluene” value [1] was under 1.0% mass %. For the same compound, the “430 nm to 600 nm Average transmittance” value [2, 3] was 93.1%, the “Is value (nd(B)×(λa-λc))” value [2, 3] was 142.1 and the λa [2, 3] was 687 nm. For the same compound, the “λa − λc” value [2, 3] was 91 nm, the λb [2, 3] was 717 nm and the “λb − λa” value [2, 3] was 30 nm. The λc [2, 3] was 596 nm, the λmax [2, 3] was 704 nm and the “430 nm to 600 nm Average transmittance” value [2, 4] was 95.6%. The “Is value (nd(B)×(λa-λc))” value [2, 4] was 122.4, the λa [2, 4] was 693 nm and the “λa − λc” value [2, 4] was 68 nm. For the same compound, the λb [2, 4] was 723 nm, the “λb − λa” value [2, 4] was 30 nm and the λc [2, 4] was 618 nm. The λmax [2, 4] was 710 nm, the “430 nm to 600 nm Average transmittance” value [2, 7] was 94.5% and the “Is value (nd(B)×(λa-λc))” value [2, 7] was 126.4. The λa [2, 7] was 690 nm, the “λa − λc” value [2, 7] was 79 nm and the λb [2, 7] was 720 nm. The “λb − λa” value [2, 7] was 30 nm, the λc [2, 7] was 611 nm and the λmax [2, 7] was 706 nm. For the same compound, the “430 nm to 600 nm Average transmittance” value [2, 5] was 93.6%, the “Is value (nd(B)×(λa-λc))” value [2, 5] was 129.1 and the λa [2, 5] was 693 nm. The “λa − λc” value [2, 5] was 79 nm, the λb [2, 5] was 723 nm and the “λb − λa” value [2, 5] was 30 nm. For the same compound, the λc [2, 5] was 614 nm, the λmax [2, 5] was 710 nm and the “430 nm to 600 nm Average transmittance” value [2, 6] was 95.0%. The “Is value (nd(B)×(λa-λc))” value [2, 6] was 124.2, the λa [2, 6] was 694 nm and the “λa − λc” value [2, 6] was 76 nm. For the same compound, the λb [2, 6] was 724 nm, the “λb − λa” value [2, 6] was 30 nm and the λc [2, 6] was 618 nm. It also gave a λmax [2, 6] of 710 nm.
With `CC(CCC(C(=O)Nc1cc2c(cc1C1=C([O-])C(=c3cc4c(cc3NC(=O)C(CCC(C)CC(C)(C)C)C(C)CC(C)(C)C)=[N+](C)C(C)C4(C)C)C1=O)C(C)(C)C(C)N2C)C(C)CC(C)(C)C)CC(C)(C)C` (centres unmarked) [Example A11-4] the “Solubility … Cyclohexanone” value [1] was 10%< mass %, the “Solubility to organic solvent: MIBK” value [1] was 10%< mass % and the “Solubility to organic solvent: Toluene” value [1] was 10%< mass %. For the same compound, the “430 nm to 600 nm Average transmittance” value [2, 3] was 95%, the “Is value (nd(B)×(λa-λc))” value [2, 3] was 110.9 and the λa [2, 3] was 688 nm. The “λa − λc” value [2, 3] was 71 nm, the λb [2, 3] was 718 nm and the “λb − λa” value [2, 3] was 30 nm. The λc [2, 3] was 617 nm, the λmax [2, 3] was 705 nm and the “430 nm to 600 nm Average transmittance” value [2, 4] was 95.7%. For the same compound, the “Is value (nd(B)×(λa-λc))” value [2, 4] was 112.6, the λa [2, 4] was 693 nm and the “λa − λc” value [2, 4] was 69 nm. The λb [2, 4] was 723 nm, the “λb − λa” value [2, 4] was 30 nm and the λc [2, 4] was 624 nm. The λmax [2, 4] was 709 nm, the “430 nm to 600 nm Average transmittance” value [2, 5] was 96.8% and the “Is value (nd(B)×(λa-λc))” value [2, 5] was 112.8. The λa [2, 5] was 693 nm, the “λa − λc” value [2, 5] was 69 nm and the λb [2, 5] was 723 nm. The “λb − λa” value [2, 5] was 30 nm, the λc [2, 5] was 624 nm and the λmax [2, 5] was 705 nm. For the same compound, the “430 nm to 600 nm Average transmittance” value [2, 6] was 95.9%, the “Is value (nd(B)×(λa-λc))” value [2, 6] was 111.2 and the λa [2, 6] was 693 nm. The “λa − λc” value [2, 6] was 68 nm, the λb [2, 6] was 723 nm and the “λb − λa” value [2, 6] was 30 nm. It also gave a λc [2, 6] of 625 nm and a λmax [2, 6] of 709 nm.
